Test results from patent publication EP1056700B1, “MEDICINAL USES OF PHENYLALKANOLS AND DERIVATES” (ZingoTX Pty Ltd, priority 1997, dated 1999).
Each block holds one compound with its values, some of them ahead of it.

Legend:
guinea pig atria = test: Organ bath assay on isolated guinea pig atria (rate and force of contraction)
Procedure: Male guinea pigs, 3-4 weeks old, were killed by rapid cervical dislocation without induced anaesthesia. Then, the guinea pigs were dissected to isolate the atria which were immediately mounted vertically in an organ bath containing Krebs-Henseleit solution oxygenated with carbogen.
One gram tension was applied to the atria and the base line continuously adjusted until it was stable for 20 mins. The rate and force of contraction were recorded using Mac Lab equipment.
Test substances in DMSO were assayed to a maximum concentration of 50 µM at a final concentration of 2.5 % of DMSO.

Lipoxygenase (LP) = biological target: T1, Lipoxygenase (LP) (Rattus norvegicus, UniProt P12527); test: Lipoxygenase assay with cell-free enzyme from RBL 2H3 cells (EIA); type: biochemical; settings: for activity at 10 µM: final concentration of 10 µM
T1 construct: cell-free enzyme (Wong et al, 1991) prepared from rat basophilic leukemia (RBL) 2H3 cell lines; endogenous in cells; host or cells: RBL 2H3 (rat basophilic leukemia), 15,000 g supernatant of cells disrupted by nitrogen cavitation
T1 sequence (P12527 1-673): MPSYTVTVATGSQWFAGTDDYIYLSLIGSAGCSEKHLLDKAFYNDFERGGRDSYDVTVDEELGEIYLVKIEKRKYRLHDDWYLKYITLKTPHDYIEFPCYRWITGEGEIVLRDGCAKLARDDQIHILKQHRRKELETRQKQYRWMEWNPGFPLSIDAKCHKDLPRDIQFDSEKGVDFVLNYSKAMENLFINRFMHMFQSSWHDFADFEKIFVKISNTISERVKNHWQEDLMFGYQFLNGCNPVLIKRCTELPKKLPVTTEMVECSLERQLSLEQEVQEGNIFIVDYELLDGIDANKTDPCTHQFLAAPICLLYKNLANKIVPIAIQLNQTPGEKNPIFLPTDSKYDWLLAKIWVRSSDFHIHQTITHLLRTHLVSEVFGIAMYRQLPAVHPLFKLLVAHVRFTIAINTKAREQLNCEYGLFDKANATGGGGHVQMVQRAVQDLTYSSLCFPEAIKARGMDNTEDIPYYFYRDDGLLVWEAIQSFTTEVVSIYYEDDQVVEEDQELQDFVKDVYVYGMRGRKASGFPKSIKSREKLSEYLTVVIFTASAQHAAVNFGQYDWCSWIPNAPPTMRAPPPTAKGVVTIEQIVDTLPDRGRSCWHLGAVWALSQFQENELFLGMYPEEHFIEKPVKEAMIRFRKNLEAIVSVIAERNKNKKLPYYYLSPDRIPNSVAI
Procedure: Lipoxygenase (LP) assay was performed with cell-free enzyme (Wong et al, 1991) prepared from rat basophilic leukemia (RBL) 2H3 cell lines. Cells were cultured in EMEM containing 10% fetal calf serum and antibiotic until cells reached confluence. Harvested cells were resuspended in Hepes (10 mM) buffer, pH 7.4, containing 1 mM EDTA at 1 x 10^7 cells/ml, and disrupted by nitrogen cavitation using a Parr bomb at 750 psi for 15 min. The broken cells were centrifuged at 15,000 g for 30 min. Aliquots (0.1 ml) of the supernatant were preincubated with or without drugs in Hepes buffer (10 mM Hepes, pH 7, 1 mM EDTA and 150 mM NaCl) for 5 min, and the reaction was initiated with the addition of 50 µl of CaCl2 (16 mM), 50 µl of ATP (2 mM), 5 µl of PAF (2.5 mg/ml) and 5 µl of AA (2.5 mM). The reaction mixture ([…]) was incubated at room temperature for a further 8 min, then diluted with EIA buffer at 1/200 and 1/2000 dilutions and stored on ice for EIA following the protocol provided with the kit.
Validation of LP enzyme activity was carried out by a UV spectrophotometric method in which the enzyme activity was characterised against various concentrations of Ca^2+, ATP, PAF and AA with the measurement of the formation of diene conjugated products of LP at 235 nm.
All compounds were dissolved in DMSO and assayed at a final concentration of 10 µM. NDGA was used as reference compound. The concentration of DMSO in the assay was maintained at 1.5%.

SR Ca^2+-ATPase = biological target: T2, SR Ca^2+-ATPase (Canis lupus familiaris, UniProt O46674); test: Sarcoplasmic reticulum Ca^2+-ATPase assay; type: biochemical, dog; settings: result in words
T2 construct: Effect of gingerols and their derivatives on the Ca^2+-ATPase activity of dog cardiac SR; from tissue; host or cells: dog heart (cardiac sarcoplasmic reticulum)
T2 sequence (O46674 whole entry): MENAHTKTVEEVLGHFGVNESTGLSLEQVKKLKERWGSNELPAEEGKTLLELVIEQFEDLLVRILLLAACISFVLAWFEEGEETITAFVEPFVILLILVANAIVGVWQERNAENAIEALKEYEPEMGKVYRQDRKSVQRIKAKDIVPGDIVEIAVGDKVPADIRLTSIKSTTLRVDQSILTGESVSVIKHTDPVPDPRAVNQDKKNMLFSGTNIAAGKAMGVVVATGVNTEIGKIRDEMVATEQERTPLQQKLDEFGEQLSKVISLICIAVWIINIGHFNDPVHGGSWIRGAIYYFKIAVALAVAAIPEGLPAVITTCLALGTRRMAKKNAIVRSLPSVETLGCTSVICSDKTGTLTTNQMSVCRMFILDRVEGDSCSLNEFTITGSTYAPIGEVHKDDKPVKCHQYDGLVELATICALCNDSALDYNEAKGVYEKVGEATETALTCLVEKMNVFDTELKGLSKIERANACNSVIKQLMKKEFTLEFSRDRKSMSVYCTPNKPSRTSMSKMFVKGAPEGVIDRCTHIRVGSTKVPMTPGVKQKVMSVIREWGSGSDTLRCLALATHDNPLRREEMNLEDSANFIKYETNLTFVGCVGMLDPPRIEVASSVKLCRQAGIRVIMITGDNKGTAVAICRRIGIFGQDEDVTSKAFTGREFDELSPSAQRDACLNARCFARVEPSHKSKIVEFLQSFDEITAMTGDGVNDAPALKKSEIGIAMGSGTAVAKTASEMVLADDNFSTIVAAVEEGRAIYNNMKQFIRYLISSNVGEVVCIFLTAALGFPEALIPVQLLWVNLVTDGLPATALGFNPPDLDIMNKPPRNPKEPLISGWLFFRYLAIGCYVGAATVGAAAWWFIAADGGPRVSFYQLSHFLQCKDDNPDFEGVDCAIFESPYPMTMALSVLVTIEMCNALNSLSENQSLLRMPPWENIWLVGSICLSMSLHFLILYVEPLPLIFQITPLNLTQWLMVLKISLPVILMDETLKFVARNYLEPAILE
Procedure: A portion at each concentration (54 µl) was aliquoted into 4 designated wells of the microplate (two of four wells were controls). Each well was mixed with ATP solution (20 mM, 6 µl), except the controls, using an 8 channel pipette. The controls were assayed in the absence of ATP or calcium.
The plate was incubated with the lid on, for 30 min at 37°C, colour reagent (160 µl) was then added and mixed with citrate solution (34%, 30 µl). The plate was developed at room temperature for 30 min then absorbance at 655 nm was read from the microplate reader. The Ca^2+-ATPase activity was quantitated, from a Pi standard curve, as concentration of liberated inorganic phosphate.
Stock solutions (10 mM) of test substance were prepared in DMSO, then series dilutions were made either in DMSO or in 1M HEPES to produce the dose-response concentrations. The maximum concentration of DMSO in the final assay solution was 2.5%.
Each concentration of test substance was assayed in duplicate in the presence and absence of ATP or calcium. Phosphate standards are run on each plate as follows:
Effect of gingerols and their derivatives on the Ca^2+-ATPase activity of dog cardiac SR.

DRG neuronal cells = test: Peak [Ca^2+]i transients in cultured dorsal root ganglion neurons (Fura-2); type: cell-based, rat; settings: for Number of capsaicin-sensitive cells responding / Peak [Ca^2+]i (Average ±SD): 2 mM Ca^2+
Procedure: DRG from neonatal (3-5 days old) rat or adult Sprague-Dawley rats were incubated in Hanks CMF saline with 0.05% collagenase and 0.25% trypsin for 25 min at 37° C. Individual cells were obtained by trituration with fire polished Pasteur pipettes of diminishing diameters. Neurones were isolated from the cell suspension in 30% Percoll and then plated on collagen coated coverslips or in 24-well plates, then cultured in neurobasal medium with B27 supplement, 50 ng/ml 2.5 S nerve growth factor, 2 mM 1-glutamine and 100 U/ml penicillin/streptomycin. Cultures were maintained at 37° C with 5% CO2. 30% Percoll increases the percentage of capsaicin-sensitive DRG neurones up to 70%. For peak [Ca^2+]i transients measurements, cells on coverslips were incubated with 5 µM Fura-2 AM for 30 min at 37° C. The coverslips were then mounted on a chamber attached to a fast sample application perfusion system which allows changing solutions in the second range. Recordings were made on the stage of a Nikon Diaphot inverted microscope fitted with a Nikon 40 x Fluo (NA 0.85) DL Ph3 or 40 x Fluo (NA 1.3) oil objective. [Ca^2+]i was calculated from dual excitation wavelength (340/380 nm) fluorescence measurements following an intracellular calibration procedure by the Grynkiewicz equation, using MCID M2/M4 v.3.0 (Imaging Res. Inc.) software. Cells were continuously perfused with a solution consisting of 140 mM NaCl, 2 mM CaCl2, 5 mM KCl, 20 mM HEPES, 10 mM glucose, pH 7.4. To study KCl evoked depolarisation, 50 mM NaCl was replaced by equimolar KCl. Cytoplasmic localisation of Fura-2 was tested with the Mn^2+ quenching technique (Dedov and Roufogalis, 1998). All experiments were performed at room temperature (20-23°C).
Typical changes in [Ca^2+]i upon depolarisation were evoked by 50 mM KCl and by application of 1 µM capsaicin; both were applied for 30 sec. Capsaicin-evoked peak [Ca^2+]i transients are characterised by a fast rise and long-steady state [Ca^2+]i clearance from the cytoplasm. In capsaicin-sensitive cells the half-time of cytoplasmic Ca^2+ clearance was proportional to the amplitudes of peak [Ca^2+]i transients.
To examine the effect of gingerol derivatives, one or several compounds in succession at a concentration of 10 µM were applied for 1 min to the DRG neuronal cells followed by washing out for 4 min with physiological solution. To the capsaicin-sensitive cells, 10 µM capsaicin and 50 mM KCl were applied, respectively, to confirm the viability of the cells. In addition, morphological appearances of the cells were also examined at the end of experiment. […]

Cyclo-oxygenase (COX) = test: Cyclo-oxygenase assay in RBL 2H3 cells (PGD2 EIA); type: cell-based, rat
Procedure: Cyclo-oxygenase (COX) assay was performed with cells in culture prepared from rat basophilic leukemia (RBL) 2H3 cell lines. Cells were cultured in EMEM containing 10% fetal calf serum and antibiotic until cells reached confluence. Harvested cells were subsequently seeded on 24-well plates at 1 x 10^6 cells/ml then incubated at 37°C for 3 hours. Cells were washed twice with incubation buffer (1.5 ml) containing 5 mM Hepes, 140 mM NaCl, 5 mM KCl, 0.6 mM MgCl2, 1 mM CaCl2 and […]. Cells were then covered with 0.49 ml of buffer, followed by addition of samples/solvents (0.005 ml) and incubated at 37 °C for 5 min on an orbital shaker. Arachidonic acid (0.005 ml, containing 50% EtOH) was subsequently added, and the plate was incubated at similar conditions for a further 10 min. The supernatant (0.1 ml) was aliquoted for methoxime derivatisation of PGD2, which was carried out by heating the supernatant with methoxime solution (1:1) at 60 °C for 30 min according to the instructions provided with the kit. The resultant solution was diluted with EIA buffer and stored on ice for EIA, following the protocol provided with the kit.
Validation of COX enzyme activity was carried out using EIA in which the enzyme activity was characterised against various concentrations of AA and a time course of enzyme activity.
[…] Indomethacin was used as reference compound. The concentration of DMSO in the assay was maintained at 1.5%.

[1] = result in words, guinea pig atria

Compound: COc1cc(CCC(=O)CC(O)CCCCCCC(O)CC(=O)CCc2ccc(O)c(OC)c2)ccc1O (centres unmarked) [bisgingerol, 5,12-dihydroxy-1,16-bis(4-hydroxy-3-methoxyphenyl)hexadecane-3,14-dione]
FORCE OF CONTRACT^n (guinea pig atria; [1]): inactive
HEART RATE (guinea pig atria; [1]): inactive

Compound: C[C@H]1O[C@@H](O[C@H]2[C@@H](O)C[C@H](O[C@H]3[C@@H](O)C[C@H](O[C@H]4CC[C@@]5(C)[C@H](CC[C@@H]6[C@@H]5C[C@@H](O)[C@]5(C)[C@@H](C7=CC(=O)OC7)CC[C@]65O)C4)O[C@@H]3C)O[C@@H]2C)C[C@H](O)[C@@H]1O [Digoxin, reference compound]
time for tension to reach maximum after addition of a dose (guinea pig atria; guinea pig atria): a few mins

activity at 0.5 µM (Lipoxygenase (LP); 0.5 µM): 20%
Compound: CC(Cc1ccc(O)c(O)c1)C(C)Cc1ccc(O)c(O)c1 (centres unmarked) [NDGA, reference compound]

SR Ca^2+-ATPase (SR Ca^2+-ATPase): inactive
Compound: CCCCCCCC(O)CC(=O)CCc1ccc2c(c1)OCO2 (centres unmarked) [drawing 42]

Compound: COc1cc(CNC(=O)CCCC/C=C/C(C)C)ccc1O [Capsaicin, reference compound]
tachycardial and inotropic effects on guinea pig atria (guinea pig atria; result in words): tachycardial and inotropic effects
Number of capsaicin-sensitive cells responding (DRG neuronal cells; high responses, 10 µM): 5
Peak [Ca^2+]i (Average ±SD) (DRG neuronal cells; high responses, 10 µM): 824 ± 122 (high responses) nM
evoked [Ca^2+]i transients (DRG neuronal cells; in Ca^2+-free medium or on application of ruthenium red (1 µM)): abolished or greatly diminished
Number of capsaicin-sensitive cells responding (DRG neuronal cells; low responses, 10 µM): 10
Peak [Ca^2+]i (Average ±SD) (DRG neuronal cells; low responses, 10 µM): 134 ± 78 (low responses) nM

Compound: COc1ccc2c(c1)c(CC(=O)O)c(C)n2C(=O)c1ccc(Cl)cc1 [Indomethacin, reference compound]
Cyclooxygenase activity % activity (Cyclo-oxygenase (COX); 1 µM): 23%

activity at 10 µM (Lipoxygenase (LP)): 61%
Compound: CCCCCCCCCC(O)C(=O)c1ccc(O)c(OC)c1 (centres unmarked) [2-hydroxy-1-(4-hydroxy-3-methoxyphenyl)undecan-1-one]
Number of capsaicin-sensitive cells responding (DRG neuronal cells; 10 µM applied for 1 min): 2
Peak [Ca^2+]i (Average ±SD) (DRG neuronal cells; 10 µM applied for 1 min): 215 ± 7 nM
Cyclooxygenase activity % activity (Cyclo-oxygenase (COX); final concentration of 10 µM): 95%

activity at 10 µM (Lipoxygenase (LP)): 0%
Compound: CCCCCCCC=CC(=O)CCc1ccc(O)c(OC)c1 [[8]-shogaol, 1-(4-hydroxy-3-methoxyphenyl)dodecan-4-ene-3-one, reference compound]
Number of capsaicin-sensitive cells responding (DRG neuronal cells; 10 µM applied for 1 min): 2
Peak [Ca^2+]i (Average ±SD) (DRG neuronal cells; 10 µM applied for 1 min): 110 ± 56 nM
Cyclooxygenase activity % activity (Cyclo-oxygenase (COX); final concentration of 10 µM): 21%
